Experiment [1] deals with primary human renal mesangial cells (HRMCs). Description: proliferation (BrdU) of mesangial cells stimulated with IgA-containing immune complexes. To be noted: immune complexes purified from three patients with IgA nephropathy. Type of experiment: cell-based. The text has this: Primary human mesangial cells in a culture were stimulated with pathogenic galactose deficient (Gd)-IgA containing immune complexes isolated from human IgA nephropathy patients. […] Specifically, pathogenic IgA-containing immune complexes were isolated from serum from either IgA nephropathy patients or age, gender and ethnicity-matched healthy individuals. Frozen serum was purchased from BioIVT and IgA-containing immune complexes were purified using jacalin affinity chromatography. […] Purified IgA-containing immune complexes were concentrated using a 100K Amicon filtration unit and the amount of total IgA and galactose-deficient IgA (Gd-IgA) in the immune complexes was measured by ELISA (ThermoFisher and IBL America, respectively). […] See, e.g., Novak et. al., Kidney International, 67, pp. 504-516; 2005; Novak et. al., Nephrol. Dial. Transplant, 26, pp. 3451-3457; 2011; Liang et. al., Cell Physiol. Biochem., 36, pp. 1793-1808; 2015; Nguyen et. al., Clin. Kidney 1, 12 (2), pp, 232-238; 2019.

A further experiment deals with g-ddY mice. The experiment can be described thus: albuminuria (UACR) in g-ddY mouse model of IgA nephropathy. To be noted: for albuminuria compared to baseline: approximately 5 days. Type of experiment: in vivo. The source says:
The grouped ddY (g-ddY) mouse is a spontaneous model of early-onset IgA nephropathy characterized by IgA immune complex deposition in the mesangium of the kidney, leading to significant proteinuria, glomerular hypercellularity, mesangioproliferative glomerular lesions, glomerular sclerosis and reduced kidney function, all hallmarks of human IgA nephropathy (J Am Soc Nephrol 23: 1364-1374, 2012). Consistent with human IgA nephropathy, the mesangial IgA deposits in the g-ddY mouse are also accompanied by deposition of IgG and complement C3.

For experiment [2], the system named is kidney tissue of g-ddY mice. The experiment can be described thus: Ingenuity Pathway Analysis (IPA) canonical pathways of kidney RNA-seq, g-ddY mice. The format is in vivo, mouse. To be noted: 30 mg/kg/day.

As for `CCCCN(CCCC)C(=O)CN1C[C@H](c2ccc3c(c2)OCO3)[C@@H](C(=O)O)[C@@H]1c1ccc(OC)cc1` [atrasentan, (2R,3R,4S)-4-(1,3-benzodioxol-5-yl)-1-[2-(dibutylamino)-2-oxoethyl]-2-(4-methoxyphenyl)pyrrolidine-3-carboxylic acid], the “hyperproliferation of HRMCs induced by IgA containing immune complexes” value in experiment [1] is “significantly attenuated the hyperproliferation”. Further, the “effect to reduce UACR from baseline compared to control group” value with g-ddY mice (10 mg/kg/day) is “not significant”; in the experiment on g-ddY mice (20 mg/kg/day, P=0.0498, un-paired t-test), “statistically significant compared to the control group”; in the experiment on g-ddY mice (30 mg/kg/day, P=0.029), “statistically significant compared to the control group”. Moreover, the “albuminuria compared to baseline” value in the experiment with g-ddY mice (20 mg/kg/day, just failed statistical significance (P=0.0593)) is given as “reduced from baseline to a similar extent”; in the experiment with g-ddY mice (30 mg/kg/day, paired t-test), “significantly (P=0.0002, paired two-sided t-test) reduced albuminuria from baseline”. Also, the “signaling pathways by IPA analysis” value in experiment [2] is “reduced NF-κB signaling, IL-6 pathway signaling (e.g., STAT3), and PDGF signaling”.

Values taken from patent US20220304979A1, “METHODS OF REDUCING DISEASE FLARES” (Chinook Therapeutics, Inc., priority 2019, published 2022).
